Assay results reported in PubChem BioAssay AID1996.
≈ marks a conversion by molar mass, not a printed value.

Conditions: buffer; pH 7.4; 200.0 µM

For `CC1(C)C2CCC(C2)C1(C)N=C1OC(CCl)CS1` (centres undefined), which solubility kinetic is on record?
Its solubility kinetic is 5.9 µg/mL (≈ 20.5 µM).

Which solubility kinetic does the source give for `COc1ccc(C(=O)COC(=O)CN2C(=O)C3CC=CCC3C2=O)c(OC)c1` (centres undefined) here?
The solubility kinetic was 57.6 µg/mL (≈ 149 µM).

Which solubility kinetic does the source give for `Cc1[nH]c(=O)c(C#N)c(C)c1CSc1ncccn1` here?
The solubility kinetic was over 40.8 µg/mL.

With `Fc1ccc(NC(=S)N2CCc3[nH]c4ccccc4c3C2)cc1` as the compound, how does the solubility kinetic read?
Its solubility kinetic is 1.2 µg/mL (≈ 3.69 µM).

Which solubility kinetic does the source give for `CC(C)CCNC(=O)Cc1csc(-c2ccccc2)n1` here?
Its solubility kinetic is 41.4 µg/mL (≈ 144 µM).

For `COc1cccc(CSc2nc(N)cc(N)n2)c1`, which solubility kinetic is on record?
The solubility kinetic was 28.6 µg/mL (≈ 109 µM).

For `COCCN(C(=S)Nc1cccc(C)c1C)C(C)c1ccco1` (centres undefined), which solubility kinetic is on record?
The solubility kinetic was 40.1 µg/mL (≈ 121 µM).

Which solubility kinetic does the source give for `OCCN1CCN(c2cc(C(F)(F)F)nc3c(F)cccc23)CC1` here?
The solubility kinetic was 48.5 µg/mL (≈ 141 µM).

Which solubility kinetic does the source give for `Cc1ccc(N(CC(=O)NCC2CCCO2)S(=O)(=O)c2ccc(Cl)cc2)cc1C` (centres undefined) here?
The solubility kinetic was 40.2 µg/mL (≈ 92 µM).

With `COc1ccc(NC(=O)CCN2C(=O)[C@@H]3[C@H](C2=O)[C@H]2C=C[C@@H]3C2)cc1` as the compound, how does the solubility kinetic read?
The solubility kinetic was 46.7 µg/mL (≈ 137 µM).

With `CCCC1(CCC)NC(=O)N(CC(=O)Nc2ccc(Cl)c(S(=O)(=O)N3CCOCC3)c2)C1=O` as the compound, how does the solubility kinetic read?
Its solubility kinetic is 73.2 µg/mL (≈ 146 µM).

With `Cc1ccc2c(c1)N(CC(=O)N1CCCCC1)C(=O)CO2` as the compound, how does the solubility kinetic read?
Its solubility kinetic is over 43.3 µg/mL.

With `CC1CCCC(NC(=O)CCC(=O)NCc2ccccc2)C1C` (centres undefined) as the compound, how does the solubility kinetic read?
The solubility kinetic was 44.7 µg/mL (≈ 141 µM).

For `O=C(NCCC(=O)N1CCc2ccccc21)c1ccccc1Cl`, which solubility kinetic is on record?
Its solubility kinetic is 32.1 µg/mL (≈ 97.6 µM).

Which solubility kinetic does the source give for `O=C(NCc1ccco1)/C(=C\C=C\c1ccccc1)NC(=O)c1ccco1` here?
The solubility kinetic was over 54.4 µg/mL.

For `Cn1cccc1/C=C(\C#N)C(N)=S`, which solubility kinetic is on record?
The solubility kinetic was 28.1 µg/mL (≈ 147 µM).

For `Cc1cc(C)c(S(=O)(=O)NC2CC3CCC2C3)c(C)c1` (centres undefined), which solubility kinetic is on record?
The solubility kinetic was under 0.6 µg/mL.

With `O=Cc1c(NCCCN2CCCC2=O)c2ccccc2[nH]c1=O` as the compound, how does the solubility kinetic read?
Its solubility kinetic is over 47 µg/mL.

With `c1ccc2c(c1)CCc1ccccc1C2=C1CCNCC1` as the compound, how does the solubility kinetic read?
The solubility kinetic was 30.7 µg/mL (≈ 111 µM).

For `Cc1ccccc1CNCCCSc1ncccn1.Cl`, which solubility kinetic is on record?
Its solubility kinetic is 35.2 µg/mL.

With `COc1ccccc1NCC(=O)c1ccc(C)c(C)c1` as the compound, how does the solubility kinetic read?
Its solubility kinetic is 2.6 µg/mL (≈ 9.65 µM).

Which solubility kinetic does the source give for `O=C(Cn1cncn1)N/N=C/c1ccccc1Cl` here?
Its solubility kinetic is over 39.6 µg/mL.

For `O=C(O)CN1C(=O)CSC1=S`, which solubility kinetic is on record?
The solubility kinetic was over 28.7 µg/mL.

With `CCC(=O)Nc1ccc(NC(=O)c2cccc3ccccc23)cc1` as the compound, how does the solubility kinetic read?
Its solubility kinetic is under 0.3 µg/mL.

With `CSc1cccc(NC(=O)CC2Oc3ccccc3NC2=O)c1` (centres undefined) as the compound, how does the solubility kinetic read?
The solubility kinetic was 1.8 µg/mL (≈ 5.48 µM).

Which solubility kinetic does the source give for `CCOC(=O)C1=C(C)NC(C)=C(C(=O)OCC)C1c1ccco1` here?
Its solubility kinetic is 8.8 µg/mL (≈ 27.6 µM).

Which solubility kinetic does the source give for `CC1(C(=O)NCC2CCCO2)Oc2cccnc2NC1=O` (centres undefined) here?
Its solubility kinetic is over 43.7 µg/mL.

With `COc1ccc(OC)c(NC(=O)CCN2CCN(CCO)CC2)c1` as the compound, how does the solubility kinetic read?
The solubility kinetic was 45.7 µg/mL (≈ 135 µM).

For `Clc1ccccc1Nc1nc(-c2ccncc2)nc2ccccc12`, which solubility kinetic is on record?
Its solubility kinetic is 0.8 µg/mL (≈ 2.4 µM).

Which solubility kinetic does the source give for `CN1C(=O)/C(=C/c2cc3c(cc2Br)OCO3)NC1=S` here?
The solubility kinetic was under 0.4 µg/mL.

With `CC(=O)Cc1nsc(NC(=O)c2ccccc2Cl)n1` as the compound, how does the solubility kinetic read?
Its solubility kinetic is over 44.4 µg/mL.

Which solubility kinetic does the source give for `O=C(COC(=O)c1ccc([N+](=O)[O-])o1)Nc1ncc(Cl)cc1Cl` here?
Its solubility kinetic is over 54 µg/mL.

With `CC1CN(S(=O)(=O)c2cccc(C(=O)NCc3ccccn3)c2)CC(C)O1` (centres undefined) as the compound, how does the solubility kinetic read?
Its solubility kinetic is over 58.4 µg/mL.

Which solubility kinetic does the source give for `CSc1ncccc1C(=O)OCC(=O)NC1CC1` here?
The solubility kinetic was over 39.9 µg/mL.

Which solubility kinetic does the source give for `CC(=O)Nc1ccc(S(=O)(=O)NCCc2ccccn2)cc1` here?
The solubility kinetic was 44 µg/mL (≈ 138 µM).

Which solubility kinetic does the source give for `CCc1cccc2c(C(=O)C(NCCOC)c3ccccc3)c[nH]c12` (centres undefined) here?
The solubility kinetic was over 50.5 µg/mL.

Which solubility kinetic does the source give for `Cc1c(C)n(Cc2ccccc2)c2ncnc(NCCCO)c12` here?
The solubility kinetic was under 0.2 µg/mL.

Which solubility kinetic does the source give for `CC(NC(=O)CN1CCN(c2ccccc2F)CC1)c1ccccc1` (centres undefined) here?
The solubility kinetic was 46.3 µg/mL (≈ 136 µM).

With `O=C(/C=C/c1ccc(F)cc1)Nc1cccc(S(=O)(=O)N2CCOCC2)c1` as the compound, how does the solubility kinetic read?
Its solubility kinetic is 13.9 µg/mL (≈ 35.6 µM).

Which solubility kinetic does the source give for `COc1cc(OC)c(C(=O)Nc2ccc3ccccc3c2)cc1OC` here?
The solubility kinetic was under 0.7 µg/mL.

Which solubility kinetic does the source give for `Cc1cccc(N2C(=O)C(Cl)=C(N3CCOCC3)C2=O)c1` here?
The solubility kinetic was over 46 µg/mL.

With `COc1cccc(C(=O)Nc2c(F)cccc2F)c1` as the compound, how does the solubility kinetic read?
Its solubility kinetic is over 39.5 µg/mL.

For `CCOc1cc(C(=S)N2CCCC2)ccc1O`, which solubility kinetic is on record?
The solubility kinetic was over 37.7 µg/mL.

With `CN1CCCC(C(=O)c2ccc(-c3ccccc3)cc2)C1` (centres undefined) as the compound, how does the solubility kinetic read?
The solubility kinetic was 27.3 µg/mL (≈ 97.7 µM).

For `COc1ccc(C)cc1N(CC(=O)N1CCCC1)S(C)(=O)=O`, which solubility kinetic is on record?
The solubility kinetic was over 49 µg/mL.

With `O=C(COC(=O)c1cc[n+]([O-])cc1)NC(=O)c1ccc(OC(F)F)cc1` as the compound, how does the solubility kinetic read?
The solubility kinetic was over 54.9 µg/mL.

Which solubility kinetic does the source give for `CCOC(=O)C1=C(C)NC(C)=C(C(=O)OCC)C1C(=O)OCC(=O)NCc1ccccc1` here?
The solubility kinetic was over 66.7 µg/mL.

For `CSCC(=O)Nc1cc(C)on1`, which solubility kinetic is on record?
Its solubility kinetic is over 27.9 µg/mL.

With `O=C(COC(=O)c1ccc(Br)o1)Nc1cccc(S(=O)(=O)N2CCOCC2)c1` as the compound, how does the solubility kinetic read?
Its solubility kinetic is 59.2 µg/mL (≈ 125 µM).

With `O=C(CN1C(=O)c2ccccc2S1(=O)=O)Nc1cccc(S(=O)(=O)N2CCOCC2)c1` as the compound, how does the solubility kinetic read?
The solubility kinetic was over 69.8 µg/mL.

With `COc1ccc(N(CCC#N)C(=O)/C(C#N)=C\c2cccs2)cc1` as the compound, how does the solubility kinetic read?
Its solubility kinetic is over 50.6 µg/mL.

For `COc1ccc(CCCC(=O)NCCc2ccccc2)c(C)c1`, which solubility kinetic is on record?
The solubility kinetic was 10.5 µg/mL (≈ 33.7 µM).

With `c1ccc2[nH]c(CCCCc3nc4ccccc4[nH]3)nc2c1` as the compound, how does the solubility kinetic read?
Its solubility kinetic is 43.4 µg/mL (≈ 149 µM).

For `CCOC(=O)C1(C)NC(c2ccco2)C2C(=O)N(CC)C(=O)C21` (centres undefined), which solubility kinetic is on record?
Its solubility kinetic is over 48.1 µg/mL.

With `Cn1c(O)c(C=NC2CCN(Cc3ccccc3)CC2)c(=O)[nH]c1=O` as the compound, how does the solubility kinetic read?
The solubility kinetic was over 51.4 µg/mL.

Which solubility kinetic does the source give for `COc1ccc(NC(=O)CN2CC(C)OC(C)C2)cc1Cl` (centres undefined) here?
The solubility kinetic was 43 µg/mL (≈ 137 µM).

Which solubility kinetic does the source give for `Cc1cccc(C)c1NC(=O)C(C)N1CCCCC1` (centres undefined) here?
The solubility kinetic was 38.3 µg/mL (≈ 147 µM).

With `COc1ccc(-c2noc(CN(C)C(=O)c3ccoc3C)n2)cc1` as the compound, how does the solubility kinetic read?
Its solubility kinetic is 40.6 µg/mL (≈ 124 µM).

Which solubility kinetic does the source give for `O=C(Cc1ccccc1[N+](=O)[O-])Nc1nccs1` here?
Its solubility kinetic is 7.3 µg/mL (≈ 27.7 µM).
